From PubChem BioAssay (NCI)
Values joined by “and” are separate entries in the source; they are usually repeats but may differ in a detail not shown here. Identical values can stand only once.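 Interpolation was linear, between the two tested concentrations surrounding the appropriate level; five concentrations were tested over 48 hours in 96-well plates. GI50 = concentration required for 50% inhibition of growth. The concentration for full growth arrest is given as TGI.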 Where a SMILES comes first, the peptide text is derived from it. The star is where a group is joined. Boc = CC(C)(C)OC(=O)*; Bn = c1ccc(C*)cc1

Columns and labels:
Test in all cases: NCI tumour cell line growth inhibition, 48 h
[1] = test system: A498 renal
[2] = test system: BT-549 breast
[3] = test system: DU-145 prostate
[4] = test system: EKVX NSCLC
[5] = test system: HCT-116 colon
[6] = test system: HL-60(TB) leukemia
[7] = test system: HS 578T breast
[8] = test system: NCI-H226 lung
[9] = test system: OVCAR-3 ovarian
[10] = test system: U251 CNS
[11] = test system: SK-MEL-28 melanoma

Compound	TGI [1]	TGI [2]	TGI [3]	TGI [4]	TGI [5]	TGI [6]	TGI [7]	TGI [8]	TGI [9]	TGI [10]	TGI [11]	GI50 [1]	GI50 [4]	GI50 [6]	GI50 [8]	GI50 [9]	GI50 [11]
COc1cc(C2OC[C@@H]3C(=O)OC[C@H]23)cc(O)c1OC (some centres undefined)	> 100 µM	> 100 µM	> 100 µM	> 100 µM	> 100 µM	> 100 µM	> 100 µM	> 100 µM	> 100 µM	> 100 µM	–	–	–	–	–	–	–
O=C(NCCCN(CCCCN(CCCNC(=O)c1cc(S(=O)(=O)O)cc(O)c1O)C(=O)c1cc(S(=O)(=O)O)cc(O)c1O)C(=O)c1cc(S(=O)(=O)O)cc(O)c1O)c1cc(S(=O)(=O)O)cc(O)c1O	> 100 µM	> 100 µM	> 100 µM	–	> 100 µM	> 100 µM	> 100 µM	> 100 µM	–	> 100 µM	> 100 µM	–	–	–	–	–	–
CC1=N[C@@](C)(C2CC3C=CC2C3=O)COC1=O (some centres undefined)	> 100 µM	> 100 µM	> 100 µM	> 100 µM	> 100 µM	> 100 µM	> 100 µM	> 100 µM	> 100 µM	> 100 µM	> 100 µM	–	–	–	–	–	–
Cc1cccc(C)c1N=Nc1ccc(O)c(CN(C)C)c1	> 100 µM	> 100 µM	> 100 µM	> 100 µM	> 100 µM	> 100 µM	> 100 µM	> 100 µM	> 100 µM	> 100 µM	60.6 µM	–	–	–	–	–	–
O=c1[nH]nc(Cc2ccccc2)n1/N=C/c1ccc([N+](=O)[O-])cc1	> 100 µM	> 100 µM	> 100 µM	> 100 µM	> 100 µM	> 100 µM	> 100 µM	> 100 µM	> 100 µM	> 100 µM	> 100 µM	–	–	–	–	–	–
O=C1/C(=C/c2ccc(O)c(O)c2)CC/C1=C\c1ccc(O)c(O)c1	63.2 µM	28.9 µM	> 100 µM	> 75.3 µM	> 47.8 µM	> 46.2 µM	> 100 µM	25.8 µM	32 µM	27.4 µM	> 100 µM	–	–	–	–	–	–
CCC1CCC2c3c([nH]c4ccc(C)cc34)C3C(=O)N(N(C)C)C(=O)C3C2C1 (centres undefined)	> 100 µM	> 100 µM	> 100 µM	> 100 µM	52.9 µM	> 46.8 µM	33 µM	> 100 µM	2.98 µM	> 100 µM	> 100 µM	–	–	–	–	–	–
Cc1ccsc1C(=S)Nc1ccc(Cl)c(/C=N/OC(C)C)c1	> 100 µM	> 100 µM	> 100 µM	> 100 µM	> 100 µM	34.6 µM	> 100 µM	> 100 µM	> 100 µM	> 100 µM	> 100 µM	–	–	–	–	–	–
COc1cc(CNc2c3ccccc3nc3ccccc23)cc(OC)c1OC	7.71 µM	16.2 µM	> 52.1 µM	21.4 µM	11.2 µM	> 21.3 µM	29.8 µM	10.3 µM	30.2 µM	19.5 µM	20.2 µM	–	–	–	–	–	–
COc1ccc(-c2nc3c(C(=O)NCCN(C)C)cccc3c3ccccc23)cc1	8.96 µM	22.3 µM	17.4 µM	19.6 µM	11.6 µM	7 µM	28.9 µM	17.1 µM	16.6 µM	10.1 µM	3.71 µM	–	–	–	–	–	–
CN(C)c1ccc(/C=C(\NC(=O)c2ccccc2)C(=O)Nc2cccc(C(=O)NCCCO)c2)cc1	> 100 µM	> 100 µM	> 100 µM	> 100 µM	> 100 µM	> 100 µM	> 100 µM	> 100 µM	> 100 µM	> 100 µM	> 100 µM	–	–	–	–	–	–
CCOc1cccc(-c2cc(=O)c3cc4c(cc3[nH]2)OCO4)c1	> 100 µM	> 100 µM	> 100 µM	> 100 µM	7.85 µM	> 100 µM	13.5 µM	15.1 µM	3.88 µM	3.44 µM	> 100 µM	–	–	–	–	–	–
CNC(=O)C(CC(C)C)NC(=O)C(C)NC(=O)C(Cc1ccc(OCc2ccccc2)cc1)NC(=O)C(COCc1ccccc1)NC(=O)OC(C)(C)C (centres undefined) (Boc-S(Bn)Y(Bn)AL-NHMe; configuration not given here)	94 µM and 30.3 µM	55.5 µM and 40.4 µM	> 100 µM	> 100 µM and 77.9 µM	20.1 µM and 20.5 µM	30.2 µM and > 100 µM	58.1 µM and 31.4 µM	> 68.5 µM and 39 µM	> 100 µM and 44 µM	> 41.3 µM and 31.7 µM	> 100 µM and 30.9 µM	33.7 µM and 12.5 µM	> 100 µM and 26.4 µM	9.51 µM and 3.9 µM	44.3 µM and 15.2 µM	42.1 µM and 19.1 µM	> 62.5 µM and 14.1 µM
CN(C)CC1CCC/C(=C\c2ccccc2)C1=O (centres undefined)	31.2 µM	23.1 µM	28.6 µM	33.7 µM	2.91 µM	> 100 µM	9.87 µM	8.26 µM	3.75 µM	28.7 µM	6.04 µM	–	–	–	–	–	–
CC(=O)Oc1ccc2cc(-c3ccc(OC(C)=O)c(OC(C)=O)c3)c(=O)oc2c1	> 100 µM	> 100 µM	> 100 µM	> 100 µM	> 100 µM	> 100 µM	> 100 µM	> 100 µM	> 100 µM	> 100 µM	> 100 µM	–	–	–	–	–	–
CC(C)(C)n1c(=O)n2n(c1=O)C1c3cccc4cccc(c34)C2C2c3cccc4cccc(c34)C1n1c(=O)n(C(C)(C)C)c(=O)n12	> 100 µM	> 100 µM	> 100 µM	> 100 µM	> 100 µM	> 100 µM	> 100 µM	> 100 µM	60 µM	> 100 µM	> 100 µM	–	–	–	–	–	–
